Patent US7148325B2, “Chimeric retroviral gag genes and screening assays” (priority 2000, dated 2006)
Entries after “also recorded” stand apart in the source; their conditions may differ.

What was measured:
[1] = biological target: T1, Chimera 4 (Human immunodeficiency virus type 1 group M subtype B, UniProt P04591); assay: In vitro transcription/translation and assembly, sucrose density gradient fractionation and SDS-PAGE, Chimera 4 Gag; type: biochemical, HIV / M-PMV; conditions: added with cyclohexamide after 30 minutes of incubation, reaction continued 90 minutes
T1 construct: the megaprimer reaction yielded a product that contained all of HIV Gag fused to M-PMV p12; made in house; host or cells: cell-free: in vitro transcription/translation (reticulocyte lysate) from plasmid pDABCh4
Description: (§1) FIGS. 4A–D—In vitro transcription and translation reactions using plasmids containing M-PMV and Chimera 4 gag genes. After 30 minutes of incubation, cyclohexamide (left panels, FIGS. 4A and 4C) or cyclohexamide plus bis-ANS (right panels, FIGS. 4B and 4D) were added to the reactions. The reactions were then allowed to continue for an additional 90 minutes. Assembled products were analyzed by sucrose density gradient fractionation and SDS-PAGE. Like M-PMV, the formation of sedimented material by Chimera 4 has been inhibited by the addition of bis-ANS. Lanes L and P indicate the loading material and re-suspended pellet, respectively.
(§2) In vitro assembly assays, such as that taught by Sakalian, M., et al. (1996), “Synthesis and assembly of retrovirus Gag precursors into immature capsids in vitro,” J Virol 70, pp. 3706–15, hereby incorporated by reference in its entirety, maybe used to screen for inhibitors of capsid assembly. Briefly, in vitro transcription of chimeric gag -containing plasmids to produce capped RNA transcripts may be performed using the mMESSAGE MMACHINE kit (Ambion, Austin, Tex.), in accordance with the manufacturers instructions. Translation reactions may be performed in the presence of [^35S]methionine in commercially-available rabbit reticulocyte lysates, according to the instructions of the manufacturer (for example, Promega). […]

[2] = biological target: T2, Chimera 3a (Human immunodeficiency virus type 1 group M subtype B, UniProt P04591); assay: In vitro transcription/translation and assembly, sucrose density gradient fractionation and SDS-PAGE, Chimera 3a Gag; type: biochemical, HIV / M-PMV; conditions: added with cyclohexamide after 30 minutes of incubation, reaction continued 90 minutes
T2 construct: made in house; host or cells: cell-free: in vitro transcription/translation (reticulocyte lysate) from plasmid pDABCh3a
Description: (§3) FIGS. 3A–E—In vitro transcription and translation reactions using plasmids containing M-PMV, HIV, and Chimera 3a gag genes. After 30 minutes of incubation, cyclohexamide (left panels, FIGS. 3A, 3C, and 3E) or cyclohexamide plus bis-ANS (right panels, FIGS. 3B, 3D, and 3F) were added to the reactions. The reactions were then allowed to continue for an additional 90 minutes. Assembled products were analyzed by sucrose density gradient fractionation and SDS-PAGE. Like M-PMV, but in contrast to HIV, the formation of sedimented material indicative of particle formation by Chimera 3a has been inhibited by the addition of bis-ANS.
as §2

[3] = biological target: T3, M-PMV Gag (Mason-Pfizer monkey virus, UniProt P07567); assay: In vitro transcription/translation and assembly, sucrose density gradient fractionation and SDS-PAGE, M-PMV Gag; type: biochemical; conditions: added with cyclohexamide after 30 minutes of incubation, reaction continued 90 minutes
T3 construct: made in house; host or cells: cell-free: coupled in vitro transcription/translation in rabbit reticulocyte lysate
Description: as §3
as §1, with “respectively. […]” for “respectively.”

[4] = biological target: T4, HIV Gag (Human immunodeficiency virus type 1 group M subtype B, UniProt P04591); assay: In vitro transcription/translation, sucrose density gradient fractionation and SDS-PAGE, HIV Gag; type: biochemical; conditions: added with cyclohexamide after 30 minutes of incubation, reaction continued 90 minutes
T4 construct: made in house; host or cells: cell-free: in vitro transcription/translation (reticulocyte lysate)
Description: as §3, §2

[5] = biological target: T3, M-PMV Gag; assay: In vitro transcription/translation, pelleting through a sucrose cushion (rapid centrifugation assay), M-PMV Gag; type: biochemical; conditions: added after 30 minutes, continued 90 minutes; sucrose cushion 35% w/v
Description: FIG. 5—In vitro transcription and translation reactions using plasmids containing M-PMV gag genes. After 30 minutes of incubation, anti-p 12 antibody or bis-ANS was added to the reactions. The reactions were then allowed to continue for an additional 90 minutes. Assembled products were analyzed by pelleting through a sucrose cushion (35% w/v). Synthesis reactions were pelleted through a sucrose cushion, and supernatant and pellet were then collected for gel analysis. […] Lanes S and P indicate supernatant and pellet, respectively.

T3 sequence (P07567 whole entry): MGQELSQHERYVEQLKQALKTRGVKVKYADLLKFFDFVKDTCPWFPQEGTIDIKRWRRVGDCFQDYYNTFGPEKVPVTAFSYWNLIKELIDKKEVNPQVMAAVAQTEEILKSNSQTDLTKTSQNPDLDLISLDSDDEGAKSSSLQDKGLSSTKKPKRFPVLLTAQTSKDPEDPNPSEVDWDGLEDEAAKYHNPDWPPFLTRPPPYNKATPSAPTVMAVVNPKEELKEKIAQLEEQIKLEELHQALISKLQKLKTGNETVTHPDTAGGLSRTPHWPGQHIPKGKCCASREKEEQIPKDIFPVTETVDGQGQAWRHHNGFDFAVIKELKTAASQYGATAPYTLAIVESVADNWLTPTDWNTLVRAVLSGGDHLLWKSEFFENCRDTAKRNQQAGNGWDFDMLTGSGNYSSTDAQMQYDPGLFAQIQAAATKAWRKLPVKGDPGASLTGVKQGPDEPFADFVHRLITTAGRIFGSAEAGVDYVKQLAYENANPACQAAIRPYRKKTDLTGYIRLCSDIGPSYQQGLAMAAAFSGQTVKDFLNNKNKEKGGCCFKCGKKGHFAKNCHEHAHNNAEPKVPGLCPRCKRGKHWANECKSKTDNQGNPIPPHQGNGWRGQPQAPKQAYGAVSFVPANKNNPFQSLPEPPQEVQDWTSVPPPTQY

O=S(=O)(O)c1cccc2c(-c3ccc(Nc4ccccc4)c4c(S(=O)(=O)O)cccc34)ccc(Nc3ccccc3)c12 [bis-ANS]
formation of sedimented material by Chimera 4 [1]: inhibited; also recorded: largely blocked
formation of sedimented material indicative of particle formation by Chimera 3a [2]: inhibited; also recorded: largely blocked
formation of sedimented material by M-PMV Gag [3]: inhibited
distribution of HIV Gag in sucrose gradients [4]: no effect
formation of pelletable material by M-PMV Gag (immature M-PMV viral capsids) [5]: reduce or prevent; also recorded: significantly reduce
